Measured values from US11793782B2, “Therapeutic agents for neurodegenerative diseases” (priority 2017, dated 2023).

Key:
ALS patients = test: Case studies, amyotrophic lateral sclerosis (ALS) patients; assay type: in vivo, human
Description: The results were documented by video.

MSA-C patients = test: Case studies, multisystemic atrophy cerebellar type (MSA-C) patients; assay type: in vivo, human
[1] = test system: Mucopolysaccharidosis Type VII (MPS VII) patient fibroblasts; test: Lysosomal volume via LysoTracker, MPS VII fibroblasts; assay type: cell-based, human; conditions: 1 mM, 6 days
[2] = ALS Patient 1, after a further 20 days
[3] = MSA-C Patient 3, after 20 days of re-suspending treatment
[4] = MSA-C Patient 3, after 27 days of treatment
[5] = MSA-C Patient 3, shortly after commencing treatment

## CC(=O)NC(CC(C)C)C(=O)O (racemic) [acetyl-DL-leucine]
ALS patients; ALS Patient 1
  Overall symptoms: improvement in symptoms
ALS patients; ALS Patient 1, 5 gram per day, after 15 days of treatment
  Speech (patient report): significant improvement of speech
ALS patients; ALS Patient 1, about 7 days plus 1-2 additional weeks off treatment
  Speech after stopping treatment: deterioration of speech
ALS patients; [2]
  Paresis of the right foot-dorsiflexors and foot drop: improved dramatically and were clinically hardly detectable
  Sleep (patient report): improvement in sleep
  Speech (patient report): further improvement of speech
ALS patients; ALS Patient 1, second resumption
  Symptomatology after resuming treatment: improved symptomatology, in particular speech
ALS patients; ALS Patient 2, 5 g per day, after approximately 2 months
  Clinical observation: progredient deterioration of the motor function of the left hand, but a discrete improvement of walking
ALS patients; ALS Patient 2, after approximately 2 months
  Swallowing functions: remained stable
ALS patients; ALS Patient 3, 5 g per day, after one month
  Symptomatology: did not report improvement of symptomatology
ALS patients; ALS Patient 4, 5 g per day, after about one month
  Clinical observation: subjective improvement of dysphagia and less hypersalivation
ALS patients; ALS Patient 4, 10 days after therapy was suspended
  Symptomatology after suspension: worsening of symptomatology
ALS patients; ALS Patient 4, about 8 weeks after resuming continuous treatment, before treatment 44/48
  ALS-FRS score: 43/48
MSA-C patients; MSA-C Patient 1, 5 g per day, after one week
  Speech: significant improvement in speech
MSA-C patients; MSA-C Patient 2, after 3 weeks, before approximately 10 falls a month
  Falls: falls completely stopped
MSA-C patients; MSA-C Patient 2, one week after stopping
  Symptoms after stopping medication: deterioration of gait and dizziness
MSA-C patients; MSA-C Patient 2, two days after stopping, following a further 40 days of treatment
  Symptoms after stopping medication again: progressive deterioration of gait and dizziness
MSA-C patients; MSA-C Patient 2, up to 5 gram per day, after 3 weeks
  Gait: significant improvement of gait
MSA-C patients; MSA-C Patient 3, 5 gram per day, after 27 days of treatment
  speed: 106 cm/s
MSA-C patients; [3]
  Coefficient of variation (temporal): 2.5
  Double stance: 27.1%
  Functional Gait Assessment: 22/30
  Max. speed: 197 cm/s
  Step cycle length: 115 cm
  Track width: 17.5 cm
  cadence: 112 steps/minute
  speed: 106 cm/s
MSA-C patients; [4]
  Coefficient of variation (temporal): 3.1
  Double stance: 27.3%
  Functional Gait Assessment: 20/30
  Max. speed: 208 cm/s
  Step cycle length: 113 cm
  Track width: 14.6 cm
  cadence: 113 steps/minute
MSA-C patients; MSA-C Patient 3, after one month of treatment
  Gait analysis (summary): improvement of gait speed, and reductions of track width and gait fluctuations
MSA-C patients; MSA-C Patient 3, approximately two to three weeks after stopping
  Symptoms after stopping medication: progressive deterioration of gait and dizziness
MSA-C patients; [5]
  Coefficient of variation (temporal): 3.3
  Double stance: 32.5%
  Functional Gait Assessment: 21/30
  Max. speed: 183 cm/s
  Step cycle length: 87 cm
  Track width: 16.8 cm
  cadence: 101 steps/minute
  speed: 72 cm/s
[1]
  LysoTracker fluorescence relative to untreated disease fibroblasts: trend in reducing LysoTracker fluorescence
